Key:
[1] = system: c-myc in Human AML MV4-11 cells; test: Inhibition of cMYC expression (mRNA, real-time PCR) in MV4-11 cells; assay type: cell-based; settings: 3 h treatment, cMYC mRNA by real-time PCR
Protocol: MV4-11 cells (CRL-9591) were plated at a density of 2.5×10^4 cells per well in 96 well U-bottom plates and treated with increasing concentrations of test compound or DMSO (0.1%) in IMDM media containing 10% FBS and penicillin/streptomycin, and incubated for 3 h at 37′C. Triplicate wells were used for each concentration. Cells were pelleted by centrifugation and harvested using the mRNA Catcher PLUS kit according to manufacturer's instructions. The eluted mRNA isolated was then used in a one-step quantitative real-time PCR reaction, using components of the RNA UltraSense™ One-Step Kit (Life Technologies) together with Applied Biosystems TaqMan® primer-probes for cMYC and Cyclophilin. Real-time PCR plates were run on a ViiA™7 real time PCR machine (Applied Biosystems), data was analyzed, normalizing the Ct values for cMYC to an internal control, prior to determining the fold expression of each sample, relative to the control.

Human AML MV-4-11 cells = test: Inhibition of cell proliferation in MV4-11 cells (CellTiter Aqueous One); assay type: cell-based; settings: for IC50: MV4-11, 72 h; for Cell Proliferation activity: 72 h
Protocol: MV4-11 cells (CRL-9591) were plated at a density of 5×10^4 cells per well in 96 well flat bottom plates and treated with increasing concentrations of test compound or DMSO (0.1%) in IMDM media containing 10% FBS and penicillin/streptomycin. Triplicate wells were used for each concentration and a well containing only media was used as a control. Plates were incubated at 37° C., 5% CO2 for 72 h before adding 20 µL of the CellTiter Aqueous One Solution (Promega) to each well and incubated at 37° C., 5% CO2 for an additional 3-4 h. The absorbance was read at 490 nm in a spectrophotometer and the percentage of cell titer relative to DMSO-treated cells was calculated after correcting for background by subtracting the blank well's signal. IC50 values were calculated using the GraphPad Prism software.

[2] = target: Brd4 bromodomain 1 (BRD4(1)) (Homo sapiens, UniProt O60885); test: Inhibition of tetra-acetylated histone H4 binding to Brd4 bromodomain 1, measured by FRET (HTRF); set-up: made in house; host or cells: E. coli BL21(DE3); settings: 2 h at room temperature
Protocol: Proteins were cloned and overexpressed with a N-terminal 6×His tag, then purified by nickel affinity followed by size exclusion chromatography. Briefly, E. coli BL21(DE3) cells were transformed with a recombinant expression vector encoding N-terminally Nickel affinity tagged bromodomains from Brd2, Brd3, Brd4. Cell cultures were incubated at 37° C. with shaking to the appropriate density and induced overnight with IPTG. The supernatant of lysed cells was loaded onto Ni-IDA column for purification. Eluted protein was pooled, concentrated and further purified by size exclusion chromatography. Fractions representing monomeric protein were pooled, concentrated, aliquoted, and frozen at −80° C. for use in subsequent experiments.
Binding of tetra-acetylated histone H4 and BET bromodomains was confirmed by a Homogenous Time Resolved Fluorescence Resonance Energy Transfer (HTRF®) method. N-terminally His-tagged bromodomains (200 nM) and biotinylated tetra-acetylated histone H4 peptide (25-50 nM, Millipore) were incubated in the presence of Europium Cryptate-labeled streptavidin (Cisbio Cat. #610SAKLB) and XL665-labeled monoclonal anti-His antibody (Cisbio Cat. #61HISXLB) in a white 96 well microtiter plate (Greiner). For inhibition assays, serially diluted test compound was added to these reactions in a 0.2% final concentration of DMSO. Duplicate wells were used for each concentration tested. Final buffer concentrations were 30 mM HEPES pH 7.4, 30 mM NaCl, 0.3 mM CHAPS, 20 mM phosphate pH 7.0, 320 mM KF, 0.08% BSA. After a 2 h incubation at room temperature, fluorescence was measured at 665 and 620 nm with a SynergyH4 plate reader (Biotek). The binding inhibitory activity was shown by a decrease in 665 nm relative to 620 nm fluorescence. IC50 values were determined from a dose response curve.

hIL-6 mRNA = test: Inhibition of hIL-6 mRNA transcription in LPS-stimulated U937 macrophages; assay type: cell-based, Human; settings: 1 h pretreatment, LPS 3 h; for IC50: Homo sapiens, U-937, PMA-differentiated U937 cells, read-out: IL-6 activity; for IL-6 activity: PMA-differentiated U937 cells
Protocol: Human leukemic monocyte lymphoma U937 cells (CRL-1593.2) were plated at a density of 3.2×10^4 cells per well in a 96-well plate in 100 μL RPMI-1640 containing 10% FBS and penicillin/streptomycin, and differentiated into macrophages for 3 days in 60 ng/mL PMA ([…]) at 37° C. in 5% CO2 prior to the addition of compound. The cells were pretreated for 1 h with increasing concentrations of test compound in 0.1% DMSO prior to stimulation with 1 ug/mL lipopolysaccharide from Escherichia coli. Triplicate wells were used for each concentration. The cells were incubated at 37° C., 5% CO2 for 3 h before the cells were harvested. At time of harvest, media was removed and cells were rinsed in 200 μL PBS. Cells were harvested using the mRNA Catcher PLUS kit according to manufacturer's instructions. The eluted mRNA was then used in a one-step quantitative real-time PCR reaction using components of the RNA UltraSense™ One-Step Kit (Life Technologies) together with Applied Biosystems TaqMan® primer-probes for hIL-6 and Cyclophilin. Real-time PCR plates were run on a ViiA™7 real time PCR machine (Applied Biosystems), data was analyzed, normalizing the Ct values for hlL-6 to an internal control, prior to determining the fold expression of each sample, relative to the control.

Structure (SMILES) | IC50 [1] | IC50 (Human AML MV-4-11 cells) | IC50 [2] | IC50 (hIL-6 mRNA) | Cell Proliferation activity (Human AML MV-4-11 cells) | IL-6 activity (hIL-6 mRNA)
Cc1nc2c(-c3ccccc3F)cc(-c3c(C)noc3C)cc2[nH]1 [Example Compound 91, 4-(4-(2-fluoro-phenyl)-2-methyl-1H-benzo[d]imidazol-6-yl)-3,5-dimethyl isoxazole] | ≤ 300 nM | 300 to 3000 nM | ≤ 300 nM | ≤ 300 nM |  | 
Cc1noc(C)c1-c1cc(-c2cc(N)c(=O)n(C)c2)c2nc[nH]c2c1 [Example Compound 225, 3-amino-5-(6-(3,5-dimethylisoxazol-4-yl)-1H-benzo[d]imidazol-4-yl)-1-methyl-pyridin-2(1H)-one] | 300 to 3000 nM | 3000 to 30000 nM | 300 to 3000 nM | 3000 to 30000 nM |  | 
Cc1conc1Nc1cc(-c2c(C)noc2C)cc2[nH]cnc12 [Example Compound 44, N-(6-(3,5-dimethyl-isoxazol-4-yl)-1H-benzo[d]imidazol-4-yl)-4-methyl-isoxazol-3-amine] | 300 to 3000 nM | 300 to 3000 nM | 300 to 3000 nM | 300 to 3000 nM |  | 
COc1ccncc1Oc1cc(-c2c(C)noc2C)cc2[nH]c(C)nc12 [Example Compound 171, 4-(4-((4-methoxy-pyridin-3-yl)oxy)-2-methyl-1H-benzo[d]imidazol-6-yl)-3,5-dimethyl isoxazole] | 300 to 3000 nM | 300 to 3000 nM | ≤ 300 nM | 300 to 3000 nM |  | 
CNc1nc2c(-c3cnccc3C)cc(-c3c(C)noc3C)cc2[nH]1 [Example Compound 214, 6-(3,5-dimethyl-isoxazol-4-yl)-N-methyl-4-(4-methylpyridin-3-yl)-1H-benzo[d] imidazol-2-amine] | ≤ 300 nM | ≤ 300 nM | ≤ 300 nM | 300 to 3000 nM |  | 
Cc1ccc(C#N)cc1-c1cc(-c2c(C)noc2C)cc2[nH]c(NCc3cccnc3)nc12 [Example Compound 211, 3-(6-(3,5-dimethyl-isoxazol-4-yl)-2-((pyridin-3-ylmethyl)amino)-1H-benzo[d]imidazol-4-yl)-4-methyl-benzonitrile] |  |  | ≤ 300 nM | 300 to 3000 nM |  | 
Cc1noc(C)c1-c1cc(Nc2ncccn2)c2nc[nH]c2c1 [Example Compound 43, 6-(3,5-dimethyl-isoxazol-4-yl)-N-(pyrimidin-2-yl)-1H-benzo[d] imidazol-4-amine] |  | 3000 to 30000 nM | ≤ 300 nM | 300 to 3000 nM |  | 
Cc1noc(C)c1-c1cc(-c2c(C)nn(C)c2C)c2nc(NCc3ccccc3)[nH]c2c1 [Example Compound 212, N-benzyl-6-(3,5-dimethyl-isoxazol-4-yl)-4-(1,3,5-trimethyl-1H-pyrazol-4-yl)-1H-benzo[d] imidazol-2-amine] |  |  | ≤ 300 nM | ≤ 300 nM |  | 
Cc1nc2c(NC(=O)c3ccccc3)cc(-c3c(C)noc3C)cc2[nH]1 [Example Compound 165, N-(6-(3,5-dimethyl-isoxazol-4-yl)-2-methyl-1H-benzo[d]imidazol-4-yl)benzamide] |  | 3000 to 30000 nM | 300 to 3000 nM | 300 to 3000 nM |  | 
Cc1noc(C)c1-c1cc(-c2cccc(C#N)c2C)c2nc(NC3CCN(C)CC3)[nH]c2c1 [Example Compound 216, 3-(6-(3,5-dimethyl-isoxazol-4-yl)-2-((1-methyl-piperidin-4-yl)amino)-1H-benzo[d]imidazol-4-yl)-2-methyl benzonitrile] | 300 to 3000 nM |  | ≤ 300 nM | ≤ 300 nM |  | 
Cc1nc2c(-c3cccc(S(C)(=O)=O)c3)cc(-c3c(C)noc3C)cc2[nH]1 [Example Compound 154, 3,5-dimethyl-4-(2-methyl-4-(3-(methyl-sulfonyl)phenyl)-1H-benzo[d]imidazol-6-yl)isoxazole] |  | 300 to 3000 nM | ≤ 300 nM | ≤ 300 nM |  | 
Cc1nc2c(/C=C/c3ccccc3)cc(-c3c(C)noc3C)cc2[nH]1 [Example Compound 158, (E)-3,5-dimethyl-4-(2-methyl-4-styryl-1H-benzo[d]imidazol-6-yl)isoxazole] |  | 300 to 3000 nM | ≤ 300 nM | 300 to 3000 nM |  | 
Cc1nc2c(N3C(=O)CCC3C)cc(-c3c(C)noc3C)cc2[nH]1 (stereo not drawn) [Example Compound 121, 1-(6-(3,5-dimethylisoxazol-4-yl)-2-methyl-1H-benzo[d]imidazol-4-yl)-5-methylpyrrolidin-2-one] |  |  | 300 to 3000 nM | 300 to 3000 nM | Not active | 
Cc1noc(C)c1-c1cc(-c2c(C)noc2C)c2nccn2c1 [Example Compound 8, 4,4′-(imidazo [1,2-a]pyridine-6,8-diyl) bis(3,5-dimethylisoxazole)] |  |  | 300 to 3000 nM |  | Not active | Not active
Cc1noc(C)c1-c1cc(-c2c(C)nn(C)c2C)c2nc(N3CCCC3)[nH]c2c1 [Example Compound 213, 3,5-dimethyl-4-(2-(pyrrolidin-1-yl)-4-(1,3,5-trimethyl-1H-pyrazol-4-yl)-1H-benzo[d]imidazol-6-yl)isoxazole] |  |  | ≤ 300 nM | ≤ 300 nM |  | 
Cc1noc(C)c1-c1cc(-c2cncnc2)c2nc[nH]c2c1 [Example Compound 22, 3,5-dimethyl-4-(4-(pyrimidin-5-yl)-1H-benzo[d]imidazol-6-yi)isoxazole] |  |  | 300 to 3000 nM | 300 to 3000 nM | Not active | 
Cc1nc2c(Oc3cc(C(=O)O)ccc3C)cc(-c3c(C)noc3C)cc2[nH]1 [Example Compound 175, 3-((6-(3,5-dimethylisoxazol-4-yl)-2-methyl-1H-benzo[d]imidazol-4-yl)oxy)-4-methylbenzoic acid] |  |  | ≤ 300 nM |  | Not active | Not active
COc1nccc(C)c1-c1cc(-c2c(C)noc2C)cc2[nH]c(C)nc12 [Example Compound 114, 4-(4-(2-methoxy-4-methyl-pyridin-3-yl)-2-methyl-1H-benzo[d]imidazol-6-yl)-3,5-dimethyl isoxazole] |  |  | 300 to 3000 nM | ≤ 300 nM |  | 
Cc1ccc(C#N)cc1-c1cc(-c2c(C)noc2C)cc2[nH]c(N3CCCC3)nc12 [Example Compound 215, 3-(6-(3,5-dimethylisoxazol-4-yl)-2-(pyrrolidin-1-yl)-1H-benzo[d]imidazol-4-yl)-4-methylbenzonitrile] | ≤ 300 nM |  | ≤ 300 nM | 300 to 3000 nM |  | 
Cc1noc(C)c1-c1cc(-c2cccc(C(N)=O)c2C)c2nc(N3CCOCC3)[nH]c2c1 [Example Compound 208, 3-(6-(3,5-dimethyl-isoxazol-4-yl)-2-morpholino-1H-benzo[d]imidazol-4-yl)-2-methyl benzamide] |  |  | ≤ 300 nM | ≤ 300 nM |  | 

— patent US9999616B2 (ZENITH EPIGENETICS LTD., priority 2013, dated 2018)
